In US20260347364A1, “PYRAZOLO[4,3-F]QUINAZOLINE DERIVATIVES AS MODULATORS OF G12D MUTANT KRAS USEFUL FOR THE TREATMENT OF CANCER” (JAZZ PHARMACEUTICALS IRELAND LTD., priority 2023, published 2026):
pIC50: −log10 of the molar value.

How the values were obtained:
[1] = biological target: T1, KRAS G12D (Homo sapiens, UniProt P01116, G12D); experiment: HTRF nucleotide exchange assay, KRAS G12D; format: biochemical; details: HTRF nucleotide exchange assay (NEA), class symbols
T1 construct: aa1-188 KRAS WT, HRAS WT, NRAS WT, or KRAS containing the G12D
T1 sequence (P01116 1-188 isoform P01116-2 G12D): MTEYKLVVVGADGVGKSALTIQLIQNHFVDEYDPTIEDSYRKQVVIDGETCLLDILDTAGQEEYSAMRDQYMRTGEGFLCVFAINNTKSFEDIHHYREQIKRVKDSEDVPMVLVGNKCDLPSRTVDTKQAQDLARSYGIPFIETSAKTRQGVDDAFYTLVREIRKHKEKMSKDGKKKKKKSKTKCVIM
Protocol: (§1) HTRF Nucleotide Exchange Assay Method
(§2) The capacity of compounds to bind KRAS G12D, other KRAS mutants and wildtype RAS isoforms was quantified using a HTRF nucleotide exchange assay. Recombinant human RAS protein (2 nM; aa1-188 KRAS WT, HRAS WT, NRAS WT, or KRAS containing the G12D, G13D or Q61H amino acid substitutions, or 4 nM KRAS; aa1-188 containing the G12V, G12C, G12A or G12S amino acid substitution, an N-terminal 6× His-tag and leader sequence), and 2 nM Europium-labeled anti-6× His antibody were mixed in assay buffer (10 mM HEPES pH 7.3, 150 mM NaCl, 5 mM MgCl2, 0.05% BSA, 0.0025% NP-40 and 100 mM KF) with various concentrations of compound in a 384-well plate and a volume of 5 μL. After a 60-minute incubation at room temperature, 5 μl of 200 nM EDA-GTP-DY647P1 (diluted in assay buffer) was added to the plate. Following 30-minute incubation at room temperature, time-resolved fluorescence was measured on a PerkinElmer Envision plate reader. DMSO (0.3%) and unlabeled GDP (1 μM) or equivalent tool compound were used to generate the Max and Min assay signals, respectively. Data was analysed using a four-parameter logistic model to calculate IC50 values, with at least two independent replicates were performed for each compound. The results are presented as IC50s in Table 29 where “A” corresponds to an IC50 ≤10 nM, “B” to an IC50 >10 nM up to 100 nM, “C” is >100 nM up to 10 μM, “D” represents <49% inhibition at 10 μM and ND=not determined: […]

[2] = biological target: T2, KRAS WT (Homo sapiens, UniProt P01116); experiment: HTRF nucleotide exchange assay, KRAS WT; format: biochemical; details: class symbols; for pIC50: HTRF nucleotide exchange assay (NEA)
T2 construct: aa1-188 KRAS WT
T2 sequence (P01116 1-188 isoform P01116-2): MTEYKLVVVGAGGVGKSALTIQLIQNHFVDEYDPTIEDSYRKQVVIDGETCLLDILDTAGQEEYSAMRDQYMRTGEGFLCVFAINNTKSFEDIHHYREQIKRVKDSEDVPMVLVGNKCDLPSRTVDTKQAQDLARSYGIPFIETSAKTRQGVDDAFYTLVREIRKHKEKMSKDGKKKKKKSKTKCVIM
Protocol: as §1, §2

Compound | pIC50 [1] | pIC50 [2] | KRAS^WT NEA [2]
CCc1c(F)ccc2cc(O)cc(-c3cc4nc(OC[C@@]56CCCN5C[C@H](F)C6)nc(N5CCCC6(COC6)C5)c4c4cn(C)nc34)c12 [Example 201, 5-ethyl-6-fluoro-4-[2-methyl-9-(2-oxa-8-azaspiro[3.5]nonan-8-yl)-7-[[(2R,8S)-2-fluoro-1,2,3,5,6,7-hexahydropyrrolizin-8-yl]methoxy]pyrazolo[4,3-f]quinazolin-4-yl]naphthalen-2-ol] | ≥ 8.00 | 5.00 to 7.00 | –
C#Cc1c(F)ccc2cc(O)cc(-c3cc4nc(OC[C@@]56CCCN5C[C@H](F)C6)nc(N5CCCNCC5)c4c4cn(C)nc34)c12 (single isomer, unassigned) [Example 35] | 5.00 to 7.00 | – | D (<49% inhibition at 10 μM)
C#Cc1c(F)ccc2cc(O)cc(-c3cc4nc(OC[C@@]56CCCN5C[C@H](F)C6)nc(N5CCCn6nc(C(=O)N(C)C)cc6C5)c4c4cn(C)nc34)c12 [Example 65, 5-[4-(8-ethynyl-7-fluoro-3-hydroxy-1-naphthyl)-2-methyl-7-[[(2R,8S)-2-fluoro-1,2,3,5,6,7-hexahydropyrrolizin-8-yl]methoxy]pyrazolo[4,3-f]quinazolin-9-yl]-N,N-dimethyl-4,6,7,8-tetrahydropyrazolo[1,5-a][1,4]diazepine-2-carboxamide] | ≥ 8.00 | ≥ 8.00 | –
CCc1c(F)ccc2cc(O)cc(-c3c(F)c4nc(OC[C@@]56CCCN5C[C@H](F)C6)nc(N5CC6CCC(C5)N6)c4c4cn(C)nc34)c12 [Example 99, 4-[9-(3,8-diazabicyclo[3.2.1]octan-3-yl)-5-fluoro-2-methyl-7-[[(2R,8S)-2-fluoro-1,2,3,5,6,7-hexahydropyrrolizin-8-yl]methoxy]pyrazolo[4,3-f]quinazolin-4-yl]-5-ethyl-6-fluoro-naphthalen-2-ol] | ≥ 8.00 | ≥ 8.00 | –
Cc1cc2[nH]ncc2c(-c2cc3nc(OC[C@@]45CCCN4C[C@H](F)C5)nc(N4CCCn5nc(C(=O)N(C)C)cc5C4)c3c3cn(C)nc23)c1C(F)(F)F [Example 84, 5-[7-[[(2R,8S)-2-fluoro-1,2,3,5,6,7-hexahydropyrrolizin-8-yl]methoxy]-2-methyl-4-[6-methyl-5-(trifluoromethyl)-1H-indazol-4-yl]pyrazolo[4,3-f]quinazolin-9-yl]-N,N-dimethyl-4,6,7,8-tetrahydropyrazolo[1,5-a][1,4]diazepine-2-carboxamide] | ≥ 8.00 | 7.00 to 8.00 | –
CCc1c(F)ccc2cc(O)cc(-c3cc4nc(OCC56CCCN5CCC6)nc(N5CCCOCC5)c4c4[nH]ncc34)c12 [Example 47, 5-ethyl-6-fluoro-4-[7-(1,2,3,5,6,7-hexahydropyrrolizin-8-ylmethoxy)-9-(1,4-oxazepan-4-yl)-1H-pyrazolo[3,4-f]quinazolin-4-yl]naphthalen-2-ol] | 5.00 to 7.00 | 5.00 to 7.00 | –
CCc1c(F)ccc2cc(O)cc(-c3cc4nc(OC[C@@]56CCCN5C[C@H](F)C6)nc(N5CC(C(C)(C)O)C5)c4c4cn(C)nc34)c12 [Example 128, 5-ethyl-6-fluoro-4-[9-[3-(1-hydroxy-1-methyl-ethyl)azetidin-1-yl]-2-methyl-7-[[(2R,8S)-2-fluoro-1,2,3,5,6,7-hexahydropyrrolizin-8-yl]methoxy]pyrazolo[4,3-f]quinazolin-4-yl]naphthalen-2-ol] | 5.00 to 7.00 | – | D (<49% inhibition at 10 μM)
CCc1c(F)ccc2cc(O)cc(-c3cc4nc(OC[C@@]56CCCN5C[C@H](F)C6)nc(N5CCC(CO)CC5)c4c4cn(C)nc34)c12 [Example 113, 5-ethyl-6-fluoro-4-[9-[4-(hydroxymethyl)-1-piperidyl]-2-methyl-7-[[(2R,8S)-2-fluoro-1,2,3,5,6,7-hexahydropyrrolizin-8-yl]methoxy]pyrazolo[4,3-f]quinazolin-4-yl]naphthalen-2-ol] | 5.00 to 7.00 | 7.00 to 8.00 | –
CCc1c(F)ccc2cc(O)cc(-c3c(F)c4nc(OCC5(CN(C)C)CC5)nc(N5CCC[C@@](C)(O)C5)c4c4cn(C)nc34)c12 [Example 230, (3R)-1-[7-[[1-[(dimethylamino)methyl]cyclopropyl]methoxy]-4-(8-ethyl-7-fluoro-3-hydroxy-1-naphthyl)-5-fluoro-2-methyl-pyrazolo[4,3-f]quinazolin-9-yl]-3-methyl-piperidin-3-ol] | ≥ 8.00 | ≥ 8.00 | –
CCc1c(F)ccc2cc(O)cc(-c3cc4nc(OC[C@@]56CCCN5C[C@H](F)C6)nc(N5CCCn6nc(C(=O)N(C)C)nc6C5)c4c4cn(C)nc34)c12 [Example 112, 8-[4-(8-ethyl-7-fluoro-3-hydroxy-1-naphthyl)-2-methyl-7-[[(2R,8S)-2-fluoro-1,2,3,5,6,7-hexahydropyrrolizin-8-yl]methoxy]pyrazolo[4,3-f]quinazolin-9-yl]-N,N-dimethyl-5,6,7,9-tetrahydro-[1,2,4]triazolo[1,5-a][1,4]diazepine-2-carboxamide] | ≥ 8.00 | ≥ 8.00 | –
C#Cc1c(F)ccc2cc(O)cc(-c3cc4nc(OC[C@@]56CCCN5C[C@H](F)C6)nc(N5CC6C(=O)NC(=O)C6C5)c4c4cn(C)nc34)c12 (stereo partly drawn) [Example 37] | 5.00 to 7.00 | – | D (<49% inhibition at 10 μM)
CCc1c(F)ccc2cc(O)cc(-c3c(F)c4nc(OCC5(CN6CC(F)(F)C6)CC5)nc(N5CCOCC(C)(O)C5)c4c4cn(C)nc34)c12 (stereo not drawn) [Example 191, 4-[7-[[1-[(3,3-difluoroazetidin-1-yl)methyl]cyclopropyl]methoxy]-4-(8-ethyl-7-fluoro-3-hydroxy-1-naphthyl)-5-fluoro-2-methyl-pyrazolo[4,3-f]quinazolin-9-yl]-6-methyl-1,4-oxazepan-6-ol] | ≥ 8.00 | 7.00 to 8.00 | –
CCc1c(F)ccc2cc(O)cc(-c3c(F)c4nc(OC[C@@H]5CCN5C)nc(N5CCC[C@@](C)(O)C5)c4c4cn(C)nc34)c12 [Example 239, (3R)-1-[4-(8-ethyl-7-fluoro-3-hydroxy-1-naphthyl)-5-fluoro-2-methyl-7-[[(2S)-1-methylazetidin-2-yl]methoxy]pyrazolo[4,3-f]quinazolin-9-yl]-3-methyl-piperidin-3-ol] | ≥ 8.00 | – | –
CCc1c(F)ccc2cc(O)cc(-c3c(F)c4nc(OCC5(CN6CC(O)C(F)(F)C6)CC5)nc(N5CCOCC(C)(O)C5)c4c4cn(C)nc34)c12 (stereo not drawn) [Example 237, 4-[7-[[1-[(3,3-difluoro-4-hydroxy-pyrrolidin-1-yl)methyl]cyclopropyl]methoxy]-4-(8-ethyl-7-fluoro-3-hydroxy-1-naphthyl)-5-fluoro-2-methyl-pyrazolo[4,3-f]quinazolin-9-yl]-6-methyl-1,4-oxazepan-6-ol] | ≥ 8.00 | – | –
CCc1c(F)ccc2cc(O)cc(-c3c(C)c4nc(OCC5(CF)COC5)nc(N5CC6CCC(C5)N6)c4c4cn(C)nc34)c12 [Example 247, 4-[9-(3,8-diazabicyclo[3.2.1]octan-3-yl)-7-[[3-(fluoromethyl)oxetan-3-yl]methoxy]-2,5-dimethyl-pyrazolo[4,3-f]quinazolin-4-yl]-5-ethyl-6-fluoro-naphthalen-2-ol] | ≥ 8.00 | – | –
